The values that follow are results of earlier work, collected in patent publication US11071776B2, “Nanoparticles for treatment of allergy” (priority 2012, dated 2021).

Each structure is given as a SMILES string.

Consider `CCCCCCCCCCCCCCCCCCCCCCCCCC(=O)N[C@@H](CO[C@H]1O[C@H](CO)[C@H](O)[C@H](O)[C@H]1O)[C@H](O)[C@H](O)CCCCCCCCCCCCCC` [αGalCer, alpha-galactosylceramide], for which the toxicity to humans result is listed as “not toxic to humans”.
